Series [1] has as its system Haemophilus influenzae (Isolate ID ATCC 49247). In words: Antibacterial activity, MIC, H. influenzae. The series is classed as cell-based. As to conditions: Haemophilus influenzae, ATCC49247; Gram negative strain; broth microdilution or agar dilution. In a few lines: (§1)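 MICs determined by broth microdilution or agar dilution according to CLSI guidelines (M7-A7).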
Series [2] relates to Streptococcus pyogenes (Isolate ID ATCC 51339). In words: Antibacterial activity, MIC, S. pyogenes. The series is classed as cell-based. Particulars: Streptococcus pyogenes, ATCC51339, Gram positive strain; broth microdilution or agar dilution. A digest of the protocol: as §1
In series [3] the test system is Enterococcus faecalis (Isolate ID ATCC 29212). As to the kind of experiment: Antibacterial activity, MIC, E. faecalis. In kind it is cell-based. Particulars: Enterococcus faecalis, ATCC29212; Gram positive strain; broth microdilution or agar dilution. A digest of the protocol:
as §1

Series [4] has as its system Staphylococcus aureus (Isolate ID ATCC 29213). As to the kind of experiment: Antibacterial activity, MIC, S. aureus. In kind it is cell-based. As to conditions: Staphylococcus aureus, ATCC29213, Gram positive strain; broth microdilution or agar dilution. In a few lines:
as §1

Another series is described as follows: physchem. Particulars: kinetic from dmso stock. A digest of the protocol:
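DMSO doubling dilutions were diluted twenty-fold into 100 mM citrate (pH 4), PBS (pH 7.4) or carbonate-bicarbonate (pH 9). After 24 h equilibration at room temperature, absorbance was read at 620 nm. The reported value is the highest concentration without measurable precipitate.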

Setting [5] is: pH 7.4, aqueous buffer, Max Solubility.
Where [6] appears, read: pH 7.4, aqueous buffer, Solubility (pH 7.4).
[7] abbreviates: pH 7.4, aqueous buffer, Solubility Range.
The mark [8] stands for this setting: pH 7.4, aqueous buffer, Solubility Range (maximum solubility).
[9] abbreviates: pH 9, aqueous buffer, Max Solubility.
The mark [10] stands for this setting: pH 9, aqueous buffer, Solubility Range (maximum solubility).

Converted amounts (≈) assume the structure as drawn.

As for `CCNC(=O)Nc1nc2cc(-c3cnc(N4CCC(C)(C(=O)O)CC4)nc3)cc(-c3ncc(C#N)cc3C)c2s1` [Compound 69], the MIC was 1 to 16 µg/mL (≈ 1.8 to 28.7 µM) in series [1], 0.25 to 1 µg/mL (≈ 0.449 to 1.8 µM) in series [2], not above 0.25 µg/mL in series [3] and 1 to 16 µg/mL (≈ 1.8 to 28.7 µM) in series [4]. Besides, the solubility at 24 h is not below 800 µg/mL in “physchem” (setting [5]), not below 800 µg/mL in “physchem” (setting [6]), more than 800 µg/mL in the series “physchem” (setting [7]) and more than 800 µg/mL in the series “physchem” (setting [8]).
Consider `CCNC(=O)Nc1nc2cc(-c3cnc(N4CCC(C)(C(=O)O)CC4)nc3)cc(-c3nccc4occc34)c2s1` [Compound 70], for which the MIC is 1 to 16 µg/mL (≈ 1.79 to 28.7 µM) in series [1], not above 0.25 µg/mL in series [2], not above 0.25 µg/mL in series [3] and not above 0.25 µg/mL in series [4]. Moreover, the solubility at 24 h in “physchem” (setting [5]) is not below 800 µg/mL; in “physchem” (setting [6]), not below 800 µg/mL; in “physchem” (setting [7]) it was more than 800 µg/mL; in “physchem” (setting [8]), more than 800 µg/mL.
As for `CCNC(=O)Nc1nc2cc(-c3cnc(N4CCC(C)(C(=O)O)CC4)nc3)cc(-c3nccc(N(C)C)c3C#N)c2s1` [Compound 71], the MIC was 0.25 to 1 µg/mL (≈ 0.427 to 1.71 µM) in series [1], not above 0.25 µg/mL in series [2], not above 0.25 µg/mL in series [3] and 0.25 to 1 µg/mL (≈ 0.427 to 1.71 µM) in series [4]. The solubility at 24 h in the series “physchem” (pH 4, aqueous buffer, Max Solubility) was 50 µg/mL (≈ 85.4 µM); in “physchem” (pH 4, aqueous buffer, Solubility Range (maximum solubility)) it was 12.5 to 400 µg/mL (≈ 21.3 to 683 µM); in “physchem” (setting [6]), 6.25 µg/mL (≈ 10.7 µM); in “physchem” (setting [7]), less than 12.5 µg/mL.
Take `CCNC(=O)Nc1nc2cc(-c3cnc(N4CCC(C)(C(=O)O)CC4)nc3)cc(/C=N/OC)c2s1` [Compound 72, (E)-1-(5-(2-(3-ethylureido)-7-((methoxyimino)methyl)benzo[d]thiazol-5-yl)pyrimidin-2-yl)-4-methylpiperidine-4-carboxylic acid]: the MIC in series [1] was 0.25 to 1 µg/mL (≈ 0.502 to 2.01 µM); in series [2] it was not above 0.25 µg/mL; in series [3] it was not above 0.25 µg/mL; in series [4] it was not above 0.25 µg/mL. The solubility at 24 h was not below 800 µg/mL in the series “physchem” (setting [5]), not below 800 µg/mL in the series “physchem” (setting [6]), more than 800 µg/mL in the series “physchem” (setting [7]) and more than 800 µg/mL in “physchem” (setting [8]).
Take `CCNC(=O)Nc1nc2cc(-c3cnc(N4CCC(C)(C(=O)O)CC4)nc3)cc(-c3cncc(OC(C)(C)C)n3)c2s1` [Compound 73]: the MIC was more than 16 µg/mL in series [1], 1 to 16 µg/mL (≈ 1.69 to 27.1 µM) in series [2], not above 0.25 µg/mL in series [3] and 0.25 to 1 µg/mL (≈ 0.423 to 1.69 µM) in series [4]. Also, the solubility at 24 h in “physchem” (setting [6]) is 400 µg/mL (≈ 677 µM); in “physchem” (setting [7]) it was 400 to 800 µg/mL (≈ 677 to 1350 µM); in “physchem” (setting [9]), not below 800 µg/mL; in the series “physchem” (setting [10]), more than 800 µg/mL.
For the compound `CCNC(=O)Nc1nc2cc(-c3cnc(N4CCC(C)(C(=O)O)CC4)nc3)cc(C3CCN(C(C)=O)CC3)c2s1` [Compound 74, 1-[5-[7-(1-acetyl-4-piperidyl)-2-(ethylcarbamoylamino)-1,3-benzothiazol-5-yl]pyrimidin-2-yl]-4-methyl-piperidine-4-carboxylic acid], the MIC was more than 16 µg/mL in series [1], 1 to 16 µg/mL (≈ 1.77 to 28.3 µM) in series [2], 1 to 16 µg/mL (≈ 1.77 to 28.3 µM) in series [3] and more than 16 µg/mL in series [4]. For the same compound, the solubility at 24 h in “physchem” (setting [5]) was not below 800 µg/mL; in the series “physchem” (setting [6]) it was not below 800 µg/mL; in “physchem” (setting [7]) it was more than 800 µg/mL; in the series “physchem” (setting [8]), more than 800 µg/mL.
On to `CCNC(=O)Nc1nc2cc(-c3cnc(N4CCC(C)(C(=O)O)CC4)nc3)cc(-c3cnc(N(C)C)s3)c2s1` [Compound 75], for which the MIC was 1 to 16 µg/mL (≈ 1.76 to 28.2 µM) in series [1], 0.25 to 1 µg/mL (≈ 0.441 to 1.76 µM) in series [2], not above 0.25 µg/mL in series [3] and 0.25 to 1 µg/mL (≈ 0.441 to 1.76 µM) in series [4]. The solubility at 24 h in the series “physchem” (setting [6]) is 25 µg/mL (≈ 44.1 µM); in “physchem” (setting [7]), 12.5 to 400 µg/mL (≈ 22.1 to 706 µM); in “physchem” (setting [9]) it was 100 µg/mL (≈ 176 µM); in the series “physchem” (setting [10]) it was 12.5 to 400 µg/mL (≈ 22.1 to 706 µM).
In the case of `CCNC(=O)Nc1nc2cc(-c3cnc(N4CCC(C)(C(=O)O)CC4)nc3)cc(-c3cnc(N4CCOCC4)s3)c2s1` [Compound 76], the MIC in series [1] was more than 16 µg/mL; in series [2], 0.25 to 1 µg/mL (≈ 0.411 to 1.64 µM); in series [3] it was not above 0.25 µg/mL; in series [4], 1 to 16 µg/mL (≈ 1.64 to 26.3 µM). In addition, the solubility at 24 h in “physchem” (setting [5]) was not below 800 µg/mL; in the series “physchem” (setting [6]) it was not below 800 µg/mL; in the series “physchem” (setting [7]) it was more than 800 µg/mL; in the series “physchem” (setting [8]), more than 800 µg/mL.
Consider `CCNC(=O)Nc1nc2cc(-c3cnc(N4CCC(C)(C(=O)O)CC4)nc3)cc(-c3cnc(CC)s3)c2s1` [Compound 77], for which the MIC in series [1] is 1 to 16 µg/mL (≈ 1.81 to 29 µM); in series [2] it was not above 0.25 µg/mL; in series [3] it was not above 0.25 µg/mL; in series [4], not above 0.25 µg/mL. Besides, the solubility at 24 h in the series “physchem” (setting [6]) is 200 µg/mL (≈ 363 µM); in the series “physchem” (setting [7]), 12.5 to 400 µg/mL (≈ 22.7 to 725 µM); in the series “physchem” (setting [9]), 400 µg/mL (≈ 725 µM); in the series “physchem” (setting [10]) it was 400 to 800 µg/mL (≈ 725 to 1450 µM).
